What all share (test): cell-based
One experiment concerns the target hNav1.7 (Homo sapiens, UniProt Q15858). The format is cell-based. Particulars: IonWorks Quattro, use-dependent block, hNav1.7; read-out: IWQ Use Nav1.7.
The target in the next experiment is hNav1.5 (Homo sapiens, UniProt Q14524). Particulars: IonWorks Quattro, use-dependent block, hNav1.5; read-out: IWQ Use Nav1.5. A general note: In patch-clamp work, channel activity is measured electrically.
In another experiment the target is hNav1.3 (Homo sapiens, UniProt Q9NY46). The settings on record: IonWorks Quattro, use-dependent block, hNav1.3; read-out: IWQ Use Nav1.3.

pIC50: −log10 of the molar value. Positions of bridges follow the written chain, without caps; N, C: chain ends. Residues, ends and D or L forms follow the SMILES beside them.

hNav1.7, sequence (Q15858 whole entry, looked up): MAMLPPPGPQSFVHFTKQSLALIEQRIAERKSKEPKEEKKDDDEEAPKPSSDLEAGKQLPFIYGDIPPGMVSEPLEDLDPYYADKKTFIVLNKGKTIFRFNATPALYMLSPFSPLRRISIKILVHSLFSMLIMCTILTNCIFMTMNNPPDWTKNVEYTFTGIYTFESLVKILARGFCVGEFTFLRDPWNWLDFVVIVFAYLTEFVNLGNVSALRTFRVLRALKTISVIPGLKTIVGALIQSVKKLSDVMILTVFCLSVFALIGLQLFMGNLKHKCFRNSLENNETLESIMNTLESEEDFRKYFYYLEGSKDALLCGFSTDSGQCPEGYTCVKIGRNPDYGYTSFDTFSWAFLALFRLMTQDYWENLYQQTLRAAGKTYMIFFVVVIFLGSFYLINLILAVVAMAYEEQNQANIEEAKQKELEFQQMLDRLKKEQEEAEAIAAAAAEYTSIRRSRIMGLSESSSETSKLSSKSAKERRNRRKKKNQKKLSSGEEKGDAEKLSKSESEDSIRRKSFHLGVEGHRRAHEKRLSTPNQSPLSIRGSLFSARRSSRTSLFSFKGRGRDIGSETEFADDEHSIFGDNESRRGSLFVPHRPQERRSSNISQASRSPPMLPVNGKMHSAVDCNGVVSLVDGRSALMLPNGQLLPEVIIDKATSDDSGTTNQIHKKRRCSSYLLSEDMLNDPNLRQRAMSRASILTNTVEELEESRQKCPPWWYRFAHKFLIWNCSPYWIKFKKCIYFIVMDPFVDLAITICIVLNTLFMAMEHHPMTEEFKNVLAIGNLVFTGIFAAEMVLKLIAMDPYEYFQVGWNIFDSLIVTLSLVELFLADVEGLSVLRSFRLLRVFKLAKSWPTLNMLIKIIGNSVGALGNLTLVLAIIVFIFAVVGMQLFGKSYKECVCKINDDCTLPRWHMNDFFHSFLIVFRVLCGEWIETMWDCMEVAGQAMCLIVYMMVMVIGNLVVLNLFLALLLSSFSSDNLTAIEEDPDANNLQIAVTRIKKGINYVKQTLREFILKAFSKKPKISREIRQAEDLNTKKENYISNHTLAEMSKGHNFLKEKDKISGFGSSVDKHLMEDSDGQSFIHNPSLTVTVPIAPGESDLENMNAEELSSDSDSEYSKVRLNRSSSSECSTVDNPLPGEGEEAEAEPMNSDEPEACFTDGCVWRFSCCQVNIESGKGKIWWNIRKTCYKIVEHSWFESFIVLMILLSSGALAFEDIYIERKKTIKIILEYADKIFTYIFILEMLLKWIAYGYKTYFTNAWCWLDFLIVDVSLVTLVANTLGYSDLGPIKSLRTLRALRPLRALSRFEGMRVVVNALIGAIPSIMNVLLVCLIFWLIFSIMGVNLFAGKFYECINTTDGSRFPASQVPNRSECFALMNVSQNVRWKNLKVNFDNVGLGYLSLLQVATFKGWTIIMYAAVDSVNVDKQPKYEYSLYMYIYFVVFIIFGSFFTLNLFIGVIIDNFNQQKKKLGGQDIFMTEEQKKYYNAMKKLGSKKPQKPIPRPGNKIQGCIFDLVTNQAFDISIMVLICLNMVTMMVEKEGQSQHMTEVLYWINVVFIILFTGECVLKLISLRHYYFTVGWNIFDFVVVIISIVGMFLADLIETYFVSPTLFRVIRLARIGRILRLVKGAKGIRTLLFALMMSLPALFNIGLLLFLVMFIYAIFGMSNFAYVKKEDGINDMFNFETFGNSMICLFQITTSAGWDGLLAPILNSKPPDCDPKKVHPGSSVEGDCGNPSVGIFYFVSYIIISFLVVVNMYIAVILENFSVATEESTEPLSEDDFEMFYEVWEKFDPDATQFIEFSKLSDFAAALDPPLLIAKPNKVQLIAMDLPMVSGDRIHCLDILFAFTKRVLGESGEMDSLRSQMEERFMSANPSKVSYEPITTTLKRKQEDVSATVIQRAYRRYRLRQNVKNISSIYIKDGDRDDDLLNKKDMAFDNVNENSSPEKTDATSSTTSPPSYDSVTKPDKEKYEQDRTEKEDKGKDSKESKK
hNav1.5, sequence (Q14524 whole entry, looked up): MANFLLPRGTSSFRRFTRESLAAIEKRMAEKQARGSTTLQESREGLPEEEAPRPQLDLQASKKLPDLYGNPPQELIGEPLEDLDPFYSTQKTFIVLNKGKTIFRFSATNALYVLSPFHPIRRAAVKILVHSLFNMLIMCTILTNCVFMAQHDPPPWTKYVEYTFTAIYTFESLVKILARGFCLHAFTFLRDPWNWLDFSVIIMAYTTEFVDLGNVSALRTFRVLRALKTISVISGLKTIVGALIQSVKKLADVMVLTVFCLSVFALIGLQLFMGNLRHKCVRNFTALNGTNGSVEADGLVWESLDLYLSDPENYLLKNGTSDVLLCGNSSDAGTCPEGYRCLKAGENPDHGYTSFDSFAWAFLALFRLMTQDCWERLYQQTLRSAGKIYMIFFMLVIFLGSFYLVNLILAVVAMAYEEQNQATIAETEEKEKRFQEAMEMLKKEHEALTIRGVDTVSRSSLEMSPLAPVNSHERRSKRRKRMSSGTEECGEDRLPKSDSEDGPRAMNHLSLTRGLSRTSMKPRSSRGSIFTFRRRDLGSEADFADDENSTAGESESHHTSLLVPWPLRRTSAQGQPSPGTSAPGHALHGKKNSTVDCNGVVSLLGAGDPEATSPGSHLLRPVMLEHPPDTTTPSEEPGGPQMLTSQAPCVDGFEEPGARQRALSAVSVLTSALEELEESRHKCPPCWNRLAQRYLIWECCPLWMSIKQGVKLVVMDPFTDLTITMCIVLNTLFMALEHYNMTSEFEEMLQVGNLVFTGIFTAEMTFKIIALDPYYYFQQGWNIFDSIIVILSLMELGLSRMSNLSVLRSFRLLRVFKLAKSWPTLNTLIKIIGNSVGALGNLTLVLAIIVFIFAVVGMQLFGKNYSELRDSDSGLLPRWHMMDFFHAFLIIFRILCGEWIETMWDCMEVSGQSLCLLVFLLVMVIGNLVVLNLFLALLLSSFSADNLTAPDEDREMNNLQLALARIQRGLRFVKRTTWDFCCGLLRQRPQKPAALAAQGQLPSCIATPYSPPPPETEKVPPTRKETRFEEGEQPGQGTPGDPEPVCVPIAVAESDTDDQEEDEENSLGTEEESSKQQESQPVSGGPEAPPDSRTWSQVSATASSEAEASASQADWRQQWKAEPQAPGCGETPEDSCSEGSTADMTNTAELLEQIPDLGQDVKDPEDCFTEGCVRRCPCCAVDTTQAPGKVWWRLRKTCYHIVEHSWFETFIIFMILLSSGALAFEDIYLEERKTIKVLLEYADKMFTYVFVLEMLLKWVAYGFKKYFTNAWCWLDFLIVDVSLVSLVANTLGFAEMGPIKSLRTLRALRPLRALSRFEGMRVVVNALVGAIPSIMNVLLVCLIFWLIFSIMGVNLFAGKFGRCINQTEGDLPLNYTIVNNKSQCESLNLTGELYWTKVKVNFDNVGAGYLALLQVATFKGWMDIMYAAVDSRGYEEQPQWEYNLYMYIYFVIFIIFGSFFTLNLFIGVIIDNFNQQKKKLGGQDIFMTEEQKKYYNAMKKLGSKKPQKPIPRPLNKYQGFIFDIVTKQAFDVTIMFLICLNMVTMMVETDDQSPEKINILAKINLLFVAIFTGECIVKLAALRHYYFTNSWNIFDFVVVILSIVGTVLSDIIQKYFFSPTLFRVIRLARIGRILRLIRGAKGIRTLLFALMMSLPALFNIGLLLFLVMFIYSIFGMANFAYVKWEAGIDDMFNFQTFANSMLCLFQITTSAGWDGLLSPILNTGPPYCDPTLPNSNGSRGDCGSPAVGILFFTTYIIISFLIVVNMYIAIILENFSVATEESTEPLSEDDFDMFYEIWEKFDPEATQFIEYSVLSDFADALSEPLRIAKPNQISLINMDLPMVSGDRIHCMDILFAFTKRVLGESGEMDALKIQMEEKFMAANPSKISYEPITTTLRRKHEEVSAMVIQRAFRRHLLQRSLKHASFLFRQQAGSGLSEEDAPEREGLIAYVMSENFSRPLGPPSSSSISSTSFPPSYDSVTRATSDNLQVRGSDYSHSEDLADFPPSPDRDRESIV

In the case of `CC[C@H](C)[C@@H]1NC(=O)[C@@H]2CSSC[C@@H]3NC(=O)[C@H](C(C)C)NC(=O)[C@H](CC(C)C)NC(=O)[C@H](CC(N)=O)NC(=O)[C@@H]4CCCN4C(=O)[C@H](CCCNC(=N)N)NC(=O)[C@H](CSSC[C@H](NC(=O)[C@@H](N)CC(=O)O)C(=O)N[C@@H](CC(C)C)C(=O)NCC(=O)N[C@@H](C)C(=O)N[C@@H](CCSC)C(=O)N[C@@H](CCCNC(=N)N)C(=O)N[C@@H](CCCCN)C(=O)N2)NC(=O)[C@H](CSSC[C@@H](C(=O)N[C@@H](CCCCN)C(=O)N[C@@H](Cc2ccc(O)cc2)C(=O)N[C@H](C(=O)N[C@@H](Cc2ccccc2)C(N)=O)C(C)C)NC(=O)[C@H](Cc2c[nH]c4ccccc24)NC(=O)CNC(=O)[C@H](Cc2c[nH]cn2)NC(=O)[C@H]([C@@H](C)O)NC(=O)[C@H](CCCNC(=N)N)NC(=O)[C@H](CO)NC3=O)NC(=O)[C@H](CCCCN)NC(=O)[C@H](CC(=O)O)NC(=O)[C@H](CC(N)=O)NC(=O)[C@H](CC(=O)O)NC(=O)[C@@H]2CCCN2C1=O` [compound 715] (H-DCLGAMRKCIPDNDKCCRPNLVCSRTHGWCKYVF-NH2; disulfide 2-17, 9-23, 16-30), the pIC50 is 6.00 on hNav1.7, less than 4.30 on hNav1.5 and less than 5.30 at hNav1.3.

Consider `CCCC[C@@H]1NC(=O)[C@H](C)NC(=O)CNC(=O)[C@H](CC(C)C)NC(=O)[C@@H](NC(=O)[C@@H](N)CC(=O)O)CSSC[C@@H]2NC(=O)[C@@H]3CSSC[C@@H](C(=O)N[C@@H](CCCCN)C(=O)N[C@@H](Cc4ccc(O)cc4)C(=O)N[C@H](C(=O)N[C@@H](Cc4ccccc4)C(N)=O)C(C)C)NC(=O)[C@H](Cc4c[nH]c5ccccc45)NC(=O)[C@H](CCCCN)NC(=O)[C@H](Cc4cnc[nH]4)NC(=O)[C@H]([C@@H](C)O)NC(=O)[C@H](CCCNC(=N)N)NC(=O)[C@H](CO)NC(=O)[C@H](CSSC[C@H](NC(=O)[C@H](CCCCN)NC(=O)[C@H](CCCNC(=N)N)NC1=O)C(=O)N[C@@H]([C@@H](C)CC)C(=O)N1CCC[C@H]1C(=O)N[C@@H](CC(=O)O)C(=O)N[C@@H](CC(N)=O)C(=O)N[C@@H](CC(=O)O)C(=O)N[C@@H](CCCCN)C(=O)N3)NC(=O)[C@H](C(C)C)NC(=O)[C@H](CC(C)C)NC(=O)[C@H](CC(N)=O)NC(=O)[C@@H]1CCCN1C(=O)[C@H](CCCNC(=N)N)NC2=O` [compound 721], for which the pIC50 on hNav1.7 was 6.82; at hNav1.5 it was 4.35; on hNav1.3 it was 6.39.

As for `CC(C)C[C@@H]1NC(=O)[C@H](C)NC(=O)CNC(=O)[C@H](CC(C)C)NC(=O)[C@@H](NC(=O)[C@@H](N)CC(=O)O)CSSC[C@@H]2NC(=O)[C@@H]3CSSC[C@@H](C(=O)N[C@@H](CCCCN)C(=O)N[C@@H](Cc4ccc(O)cc4)C(=O)N[C@H](C(=O)N[C@@H](Cc4ccccc4)C(N)=O)C(C)C)NC(=O)[C@H](Cc4c[nH]c5ccccc45)NC(=O)[C@H](CCCCN)NC(=O)[C@H](Cc4c[nH]cn4)NC(=O)[C@H]([C@@H](C)O)NC(=O)[C@H](CCCNC(=N)N)NC(=O)[C@H](CO)NC(=O)[C@H](CSSC[C@H](NC(=O)[C@H](CCCCN)NC(=O)[C@H](CCCNC(=N)N)NC1=O)C(=O)N[C@@H](CCC(=O)O)C(=O)N1CCC[C@H]1C(=O)N[C@@H](CC(=O)O)C(=O)N[C@@H](CC(N)=O)C(=O)N[C@@H](CC(=O)O)C(=O)N[C@@H](CCCCN)C(=O)N3)NC(=O)[C@H](C(C)C)NC(=O)[C@H](CC(C)C)NC(=O)[C@H](CC(N)=O)NC(=O)[C@@H]1CCCN1C(=O)[C@H](CCCNC(=N)N)NC2=O` [compound 723], the pIC50 at hNav1.7 is 6.42; at hNav1.5, less than 4.30; on hNav1.3, 5.92.

On to `CC(C)C[C@@H]1NC(=O)[C@@H](NC(=O)[C@@H](N)CC(=O)O)CSSC[C@@H]2NC(=O)[C@@H]3CSSC[C@@H](C(=O)N[C@@H](CCCCN)C(=O)N[C@@H](Cc4ccc(O)cc4)C(=O)N[C@H](C(=O)N[C@@H](Cc4ccccc4)C(N)=O)C(C)C)NC(=O)[C@H](Cc4c[nH]c5ccccc45)NC(=O)[C@H](CCCCN)NC(=O)[C@H](Cc4c[nH]cn4)NC(=O)[C@H]([C@@H](C)O)NC(=O)[C@H](CCCNC(=N)N)NC(=O)[C@H](CO)NC(=O)[C@H](CSSC[C@H](NC(=O)[C@H](CCCCN)NC(=O)[C@H](CCCNC(=N)N)NC(=O)[C@H](Cc4ccccc4)NC(=O)[C@H](C)NC(=O)CNC1=O)C(=O)N[C@@H](CCC(=O)O)C(=O)N1CCC[C@H]1C(=O)N[C@@H](CC(=O)O)C(=O)N[C@@H](CC(N)=O)C(=O)N[C@@H](CC(=O)O)C(=O)N[C@@H](CCCCN)C(=O)N3)NC(=O)[C@H](C(C)C)NC(=O)[C@H](CC(C)C)NC(=O)[C@H](CC(N)=O)NC(=O)[C@@H]1CCCN1C(=O)[C@H](CCCNC(=N)N)NC2=O` [compound 724] (H-DCLGAFRKCEPDNDKCCRPNLVCSRTHKWCKYVF-NH2; disulfide 2-17, 9-23, 16-30), for which the values for the pIC50 on hNav1.7, on hNav1.5 and on hNav1.3 were 6.42, 4.44 and 6.49, respectively.

With `CC[C@H](C)[C@@H]1NC(=O)[C@@H]2CSSC[C@@H]3NC(=O)[C@H](C(C)C)NC(=O)[C@H](CC(C)C)NC(=O)[C@H](CC(N)=O)NC(=O)[C@@H]4CCCN4C(=O)[C@H](CCCNC(=N)N)NC(=O)[C@H](CSSC[C@H](NC(=O)[C@@H](N)CC(=O)O)C(=O)N[C@@H](CC(C)C)C(=O)NCC(=O)N[C@@H](C)C(=O)N[C@@H](CC(C)C)C(=O)N[C@@H](CCCNC(=N)N)C(=O)N[C@@H](CCCCN)C(=O)N2)NC(=O)[C@H](CSSC[C@@H](C(=O)N[C@@H](CCCCN)C(=O)N[C@@H](Cc2ccc(O)cc2)C(=O)N[C@H](C(=O)N[C@@H](Cc2ccccc2)C(N)=O)C(C)C)NC(=O)[C@H](Cc2c[nH]c4ccccc24)NC(=O)[C@H](CCCCN)NC(=O)[C@H](Cc2c[nH]cn2)NC(=O)[C@H]([C@@H](C)O)NC(=O)[C@H](CCCNC(=N)N)NC(=O)[C@H](CO)NC3=O)NC(=O)[C@H](CCCCN)NC(=O)[C@H](CC(=O)O)NC(=O)[C@H](CC(N)=O)NC(=O)[C@H](CCC(=O)O)NC(=O)[C@@H]2CCCN2C1=O` [compound 726], the pIC50 was 6.46 on hNav1.7, less than 4.30 at hNav1.5 and 6.24 at hNav1.3.

As for `CC[C@H](C)[C@@H]1NC(=O)[C@@H]2CSSC[C@@H]3NC(=O)[C@H](C(C)C)NC(=O)[C@H](CC(C)C)NC(=O)[C@H](CC(N)=O)NC(=O)[C@@H]4CCCN4C(=O)[C@H](CCCNC(=N)N)NC(=O)[C@H](CSSC[C@H](NC(=O)[C@@H](N)CC(=O)O)C(=O)N[C@@H](CC(C)C)C(=O)NCC(=O)N[C@@H](C)C(=O)N[C@@H](CC(C)C)C(=O)N[C@@H](CCCNC(=N)N)C(=O)N[C@@H](CCCCN)C(=O)N2)NC(=O)[C@H](CSSC[C@@H](C(=O)N[C@@H](CCCCN)C(=O)N[C@@H](Cc2ccc(O)cc2)C(=O)N[C@H](C(=O)N[C@@H](Cc2ccccc2)C(N)=O)C(C)C)NC(=O)[C@H](Cc2c[nH]c4ccccc24)NC(=O)[C@H](CCC(=O)O)NC(=O)[C@H](Cc2c[nH]cn2)NC(=O)[C@H]([C@@H](C)O)NC(=O)[C@H](CCCNC(=N)N)NC(=O)[C@H](CO)NC3=O)NC(=O)[C@H](CCCCN)NC(=O)[C@H](CC(=O)O)NC(=O)[C@H](CC(N)=O)NC(=O)[C@H](CC(=O)O)NC(=O)[C@@H]2CCCN2C1=O` [compound 728], the pIC50 is 5.80 at hNav1.7, 4.37 on hNav1.5 and 5.18 at hNav1.3.

For `CC[C@H](C)[C@@H]1NC(=O)[C@@H]2CSSC[C@@H]3NC(=O)[C@H](C(C)C)NC(=O)[C@H](CC(C)C)NC(=O)[C@H](CC(N)=O)NC(=O)[C@@H]4CCCN4C(=O)[C@H](CCCNC(=N)N)NC(=O)[C@H](CSSC[C@H](NC(=O)[C@@H](N)CC(=O)O)C(=O)N[C@@H](CC(C)C)C(=O)NCC(=O)N[C@@H](C)C(=O)N[C@@H](Cc4ccccc4)C(=O)N[C@@H](CCCNC(=N)N)C(=O)N[C@@H](CCCCN)C(=O)N2)NC(=O)[C@H](CSSC[C@@H](C(=O)N[C@@H](CCCCN)C(=O)N[C@@H](Cc2ccc(O)cc2)C(=O)N[C@H](C(=O)N[C@@H](Cc2ccccc2)C(N)=O)C(C)C)NC(=O)[C@H](Cc2c[nH]c4ccccc24)NC(=O)[C@H](CCC(=O)O)NC(=O)[C@H](Cc2c[nH]cn2)NC(=O)[C@H]([C@@H](C)O)NC(=O)[C@H](CCCNC(=N)N)NC(=O)[C@H](CO)NC3=O)NC(=O)[C@H](CCCCN)NC(=O)[C@H](CC(=O)O)NC(=O)[C@H](CC(N)=O)NC(=O)[C@H](CC(=O)O)NC(=O)[C@@H]2CCCN2C1=O` [compound 729] (H-DCLGAFRKCIPDNDKCCRPNLVCSRTHEWCKYVF-NH2; disulfide 2-17, 9-23, 16-30), the pIC50 was 5.96 on hNav1.7, 4.32 at hNav1.5 and 5.74 at hNav1.3.

For `CC[C@H](C)[C@@H]1NC(=O)[C@@H]2CSSC[C@@H]3NC(=O)[C@H](C(C)C)NC(=O)[C@H](CC(C)C)NC(=O)[C@H](CC(N)=O)NC(=O)[C@@H]4CCCN4C(=O)[C@H](CCCNC(=N)N)NC(=O)[C@H](CSSC[C@H](NC(=O)[C@@H](N)CC(=O)O)C(=O)N[C@@H](CC(C)C)C(=O)NCC(=O)N[C@@H](C)C(=O)N[C@@H](CC(C)C)C(=O)N[C@@H](CCCNC(=N)N)C(=O)N[C@@H](CCCCN)C(=O)N2)NC(=O)[C@H](CSSC[C@@H](C(=O)N[C@@H](CCCCN)C(=O)N[C@@H](Cc2ccc(O)cc2)C(=O)N[C@H](C(=O)N[C@@H](Cc2ccccc2)C(N)=O)C(C)C)NC(=O)[C@H](Cc2c[nH]c4ccccc24)NC(=O)[C@H](CCCCN)NC(=O)[C@H](Cc2c[nH]cn2)NC(=O)[C@H]([C@@H](C)O)NC(=O)[C@H](C)NC(=O)[C@H](CO)NC3=O)NC(=O)[C@H](CCCCN)NC(=O)[C@H](CC(=O)O)NC(=O)[C@H](CC(N)=O)NC(=O)[C@H](CC(=O)O)NC(=O)[C@@H]2CCCN2C1=O` [compound 731], the pIC50 is 6.22 at hNav1.7, 4.42 at hNav1.5 and 5.55 at hNav1.3.

The values above are taken from patent US9340590B2 (priority 2011, dated 2016).
